According to US8916570B2 (The United States of America, as represented by the …, priority 2008, dated 2014):

Legend:
[1] = molecular target: T1, hA3AR (Homo sapiens, UniProt P0DMS8); assay: Binding at hA3AR, CHO membranes (Example 7); details: read-out: Affinity (Ki, nM) hA3
T1 construct: expressed in transfected cells; host or cells: CHO
T1 sequence (P0DMS8 1-318): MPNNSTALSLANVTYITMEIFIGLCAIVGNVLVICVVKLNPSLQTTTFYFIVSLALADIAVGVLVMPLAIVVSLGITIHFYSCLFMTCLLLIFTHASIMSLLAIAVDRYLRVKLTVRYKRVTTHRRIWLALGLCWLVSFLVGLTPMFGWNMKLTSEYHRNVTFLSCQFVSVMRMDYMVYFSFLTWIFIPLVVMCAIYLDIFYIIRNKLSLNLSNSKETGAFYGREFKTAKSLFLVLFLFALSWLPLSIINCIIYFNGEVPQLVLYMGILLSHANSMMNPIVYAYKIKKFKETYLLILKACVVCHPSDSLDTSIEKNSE

[2] = molecular target: T2, hA1AR (Homo sapiens, UniProt P30542); assay: Binding at hA1AR, CHO membranes (Example 7); details: read-out: % inhibition hA1
T2 construct: expressed in transfected cells; host or cells: CHO
T2 sequence (P30542 1-326): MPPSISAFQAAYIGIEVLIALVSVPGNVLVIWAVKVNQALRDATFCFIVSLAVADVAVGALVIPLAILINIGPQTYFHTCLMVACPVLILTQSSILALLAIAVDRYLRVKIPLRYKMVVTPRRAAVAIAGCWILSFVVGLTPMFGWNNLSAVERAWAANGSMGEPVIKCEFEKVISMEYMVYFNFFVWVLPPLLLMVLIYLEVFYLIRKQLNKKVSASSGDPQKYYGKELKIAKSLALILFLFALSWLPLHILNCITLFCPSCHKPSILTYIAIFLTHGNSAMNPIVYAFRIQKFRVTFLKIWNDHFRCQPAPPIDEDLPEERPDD

[3] = molecular target: T3, hA2AAR (Homo sapiens, UniProt P29274); assay: Binding at hA2AAR, HEK-293 membranes (Example 7); details: for Ki: read-out: Affinity (Ki, nM) hA2A; for inhibition at 10 µM: read-out: % inhibition hA2A
T3 construct: expressed in transfected cells
Description: After harvesting, cells were homogenized and suspended in PBS.
Nonspecific binding was determined using a final concentration of 10 μM 51 diluted with the buffer.

T3 sequence (P29274 whole entry): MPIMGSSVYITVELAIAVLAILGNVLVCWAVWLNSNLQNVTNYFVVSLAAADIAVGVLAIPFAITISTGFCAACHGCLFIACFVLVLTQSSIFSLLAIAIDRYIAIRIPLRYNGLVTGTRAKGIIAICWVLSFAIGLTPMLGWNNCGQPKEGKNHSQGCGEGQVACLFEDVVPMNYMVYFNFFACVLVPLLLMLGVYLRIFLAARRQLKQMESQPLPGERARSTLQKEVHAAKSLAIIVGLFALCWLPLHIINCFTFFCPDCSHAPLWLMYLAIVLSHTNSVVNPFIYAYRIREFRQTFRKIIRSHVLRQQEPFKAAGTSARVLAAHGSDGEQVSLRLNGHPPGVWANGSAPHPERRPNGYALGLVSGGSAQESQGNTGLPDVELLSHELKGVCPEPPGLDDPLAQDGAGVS

Ki [1]	inhibition at 10 µM [2]	Ki [3]	inhibition at 10 µM [3]	SMILES
1.95 nM	0%	1620 nM		CNC(=O)[C@@]12C[C@@H]1[C@@H](n1cnc3c(NCc4cccc(Cl)c4)nc(C#Cc4cccc(Cl)c4)nc31)[C@H](O)[C@@H]2O [Compound 330, (1S,2R,3S,4R,5S)-4-(6-(3-Chlorobenzylamino)-2-((3-chlorophenyl)ethynyl)-9H-purin-9-yl)-2,3-dihydroxy-N-methylbicyclo[3.1.0]hexane-1-carboxamide]
	13%		13%	CNC(=O)[C@@]12C[C@@H]1[C@@H](n1cnc3c(NC)nc(C#Cc4ccccn4)nc31)[C@H](O)[C@@H]2O [Compound 310, (1S,2R,3S,4R,5S)-2,3-Dihydroxy-N-methyl-4-(6-(methylamino)-2-(pyridin-2-ylethynyl)-9H-purin-9-yl)bicyclo[3.1.0]hexane-1-carboxamide]
3.1 ± 1.26 nM	20%		29%	CNC(=O)[C@@]12C[C@@H]1[C@@H](n1cnc3c(NC)nc(C#Cc4ccc(-c5ccccc5)cc4)nc31)[C@H](O)[C@@H]2O [Compound 324, (1S,2R,3S,4R,5S)-4-(2-(Biphenyl-4-ylethynyl)-6-(methylamino)-9H-purin-9-yl)-2,3-dihydroxy-N-methylbicyclo[3.1.0]hexane-1-carboxamide]
2.57 ± 0.78 nM	8%		62%	CNC(=O)[C@@]12C[C@@H]1[C@@H](n1cnc3c(NC)nc(C#Cc4ccc(C(C)=O)cc4)nc31)[C@H](O)[C@@H]2O [Compound 323, (1S,2R,3S,4R,5S)-4-(2-((4-Acetylphenyl)ethynyl)-6-(methylamino)-9H-purin-9-yl)-2,3-dihydroxy-N-methylbicyclo[3.1.0]hexane-1-carboxamide]
0.97 ± 0.38 nM	20%		17%	CNC(=O)[C@@]12C[C@@H]1[C@@H](n1cnc3c(NC)nc(C#Cc4ccccc4F)nc31)[C@H](O)[C@@H]2O [Compound 311, (1S,2R,3S,4R,5S)-4-(2-((2-Fluorophenyl)ethynyl)-6-(methylamino)-9H-purin-9-yl)-2,3-dihydroxy-N-methylbicyclo[3.1.0]hexane-1-carboxamide]
3.78 ± 1.16 nM	14%		38%	CCc1ccc(C#Cc2nc(NC)c3ncn([C@H]4[C@H](O)[C@H](O)[C@]5(C(=O)NC)C[C@H]45)c3n2)cc1 [Compound 321, (1S,2R,3S,4R,5S)-4-(2-((4-Ethylphenyl)ethynyl)-6-(methylamino)-9H-purin-9-yl)-2,3-dihydroxy-N-methylbicyclo[3.1.0]hexane-1-carboxamide]
1.67 ± 0.18 nM	24%		34%	CNC(=O)[C@@]12C[C@@H]1[C@@H](n1cnc3c(NC)nc(C#Cc4cccc5ccccc45)nc31)[C@H](O)[C@@H]2O [Compound 325, (1S,2R,3S,4R,5S)-2,3-Dihydroxy-N-methyl-4-(6-(methylamino)-2-(naphthalen-1-ylethynyl)-9H-purin-9-yl)bicyclo[3.1.0]hexane-1-carboxamide]
	18%		14%	CNC(=O)[C@@]12C[C@@H]1[C@@H](n1cnc3c(NC)nc(C#Cc4ccccc4)nc31)[C@H](O)[C@@H]2O [Compound 309, (1S,2R,3S,4R,5S)-2,3-Dihydroxy-N-methyl-4-(6-(methylamino)-2-(phenylethynyl)-9H-purin-9-yl)bicyclo[3.1.0]hexane-1-carboxamide]
1.22 ± 0.31 nM	13%		30%	CNC(=O)[C@@]12C[C@@H]1[C@@H](n1cnc3c(NC)nc(C#Cc4ccc(Cl)cc4)nc31)[C@H](O)[C@@H]2O [Compound 316, (1S,2R,3S,4R,5S)-4-(2-((4-Chlorophenyl)ethynyl)-6-(methylamino)-9H-purin-9-yl)-2,3-dihydroxy-N-methylbicyclo[3.1.0]hexane-1-carboxamide]
0.91 ± 0.06 nM	11%		26%	CNC(=O)[C@@]12C[C@@H]1[C@@H](n1cnc3c(NC)nc(C#Cc4ccc(Br)cc4)nc31)[C@H](O)[C@@H]2O [Compound 317, (1S,2R,3S,4R,5S)-4-(2-((4-Bromophenyl)ethynyl)-6-(methylamino)-9H-purin-9-yl)-2,3-dihydroxy-N-methylbicyclo[3.1.0]hexane-1-carboxamide]
0.97 ± 0.24 nM	14%		10%	CNC(=O)[C@@]12C[C@@H]1[C@@H](n1cnc3c(NC)nc(C#Cc4cccc(F)c4)nc31)[C@H](O)[C@@H]2O [Compound 312, (1S,2R,3S,4R,5S)-4-(2-((3-Fluorophenyl)ethynyl)-6-(methylamino)-9H-purin-9-yl)-2,3-dihydroxy-N-methylbicyclo[3.1.0]hexane-1-carboxamide]
10.1 ± 1.9 nM	27%		7%	CNC(=O)[C@@]12C[C@@H]1[C@@H](n1cnc3c(NC)nc(C#Cc4ccc(C(C)(C)C)cc4)nc31)[C@H](O)[C@@H]2O [Compound 322, (1S,2R,3S,4R,5S)-4-(2-((4-tert-Butylphenyl)ethynyl)-6-(methylamino)-9H-purin-9-yl)-2,3-dihydroxy-N-methylbicyclo[3.1.0]hexane-1-carboxamide]
1.07 ± 0.14 nM	16%		19%	CNC(=O)[C@@]12C[C@@H]1[C@@H](n1cnc3c(NC)nc(C#Cc4cccc(N)c4)nc31)[C@H](O)[C@@H]2O [Compound 318, (1S,2R,3S,4R,5S)-4-(2-((3-Aminophenyl)ethynyl)-6-(methylamino)-9H-purin-9-yl)-2,3-dihydroxy-N-methylbicyclo[3.1.0]hexane-1-carboxamide]
1.6 ± 0.6 nM	11%	1270 ± 300 nM		CNC(=O)[C@@]12C[C@@H]1[C@@H](n1cnc3c(NC)nc(C#Cc4cccc(Cl)c4)nc31)[C@H](O)[C@@H]2O [Compound 315, (1S,2R,3S,4R,5S)-4-(2-((3-Chlorophenyl)ethynyl)-6-(methylamino)-9H-purin-9-yl)-2,3-dihydroxy-N-methylbicyclo[3.1.0]hexane-1-carboxamide]
6.75 ± 2.78 nM	1%		38%	CNC(=O)[C@@]12C[C@@H]1[C@@H](n1cnc3c(NCc4cccc(Cl)c4)nc(C#Cc4cccc(C(=O)O)c4)nc31)[C@H](O)[C@@H]2O [Compound 333, 3-((6-(3-Chlorobenzylamino)-9-((1S,2R,3S,4R,5S)-3,4-dihydroxy-5-(methylcarbamoyl)bicyclo[3.1.0]hexan-2-yl)-9H-purin-2-yl)ethynyl)benzoic acid]
	3%		41%	CNC(=O)[C@@]12C[C@@H]1[C@@H](n1cnc3c(NCc4cccc(Cl)c4)nc(C#Cc4ccc(F)c(F)c4)nc31)[C@H](O)[C@@H]2O [Compound 331, (1S,2R,3S,4R,5S)-4-(6-(3-Chlorobenzylamino)-2-((3,4-difluorophenyl)ethynyl)-9H-purin-9-yl)-2,3-dihydroxy-N-methylbicyclo[3.1.0]hexane-1-carboxamide]
1.66 ± 0.36 nM	6%		47%	CNC(=O)[C@@]12C[C@@H]1[C@@H](n1cnc3c(NC)nc(C#Cc4cc(F)cc(F)c4)nc31)[C@H](O)[C@@H]2O [Compound 320, (1S,2R,3S,4R,5S)-4-(2-((3,5-Difluorophenyl)ethynyl)-6-(methylamino)-9H-purin-9-yl)-2,3-dihydroxy-N-methylbicyclo[3.1.0]hexane-1-carboxamide]

SMILES	Ki [1]	inhibition at 10 µM [2]	Ki [3]	inhibition at 10 µM [3]
CNC(=O)[C@@]12C[C@@H]1[C@@H](n1cnc3c(NC)nc(C#Cc4cc5ccccc5c5ccccc45)nc31)[C@H](O)[C@@H]2O [Compound 326, (1S,2R,3S,4R,5S)-2,3-Dihydroxy-N-methyl-4-(6-(methylamino)-2-(phenanthren-9-ylethynyl)-9H-purin-9-yl)bicyclo[3.1.0]hexane-1-carboxamide]	3.48 ± 1.36 nM	15%		52%
CNC(=O)[C@@]12C[C@@H]1[C@@H](n1cnc3c(NC)nc(C#Cc4ccc(F)c(F)c4)nc31)[C@H](O)[C@@H]2O [Compound 319, (1S,2R,3S,4R,5S)-4-(2-((3,4-Difluorophenyl)ethynyl)-6-(methylamino)-9H-purin-9-yl)-2,3-dihydroxy-N-methylbicyclo[3.1.0]hexane-1-carboxamide]	1.65 ± 0.08 nM	6%		6%
CNC(=O)[C@@]12C[C@@H]1[C@@H](n1cnc3c(NCc4cccc(Cl)c4)nc(C#Cc4ccc5ccc6cccc7ccc4c5c67)nc31)[C@H](O)[C@@H]2O [Compound 336, (1S,2R,3S,4R,5S)-4-(6-(3-Chlorobenzylamino)-2-(pyren-1-ylethynyl)-9H-purin-9-yl)-2,3-dihydroxy-N-methylbicyclo[3.1.0]hexane-1-carboxamide]	68.3 ± 12.5 nM	6%		66%
